What all share (format): toxicity, cell-based
One data set has as its system HEK-293T. Description: Incucyte cell viability with HEK293T. Conditions: human, 10 µM, compound concentration 10 uM.
For another data set, the system named is Fibroblast. Briefly: Incucyte cell viability with human fibroblast. Conditions: 10 µM, compound concentration 10 uM.
The next data set has as its system U2OS. Description: Incucyte cell viability with U2OS. Conditions: human, 10 µM, compound concentration 10 uM.
Setting [1] is: 0 h, replicate number 1, timepoint 0 hours.
The mark [2] stands for this setting: 6 h, replicate number 1, timepoint 6 hours.
Setting [3] is: 6 h, replicate number 2, timepoint 6 hours.
Where [4] appears, read: 12 h, replicate number 1, timepoint 12 hours.
[5] abbreviates: 18 h, replicate number 1, timepoint 18 hours.
[6] abbreviates: 24 h, replicate number 1, timepoint 24 hours.
The mark [7] stands for this setting: 0 h, replicate number 2, timepoint 0 hours.
[8] abbreviates: 18 h, replicate number 2, timepoint 18 hours.
[9] abbreviates: 24 h, replicate number 2, timepoint 24 hours.
Setting [10] is: 12 h, replicate number 2, timepoint 12 hours.
Further: filed as whole numbers so only -1 and 0 and 1 occur.

Consider `CO[C@@H]1COCC[C@@H]1N[C@@H]1CC[C@@](C(=O)N2CCc3ncc(C(F)(F)F)cc3C2)(C(C)C)C1` [MK-0812], for which the “Growth Rate” value in the data set with HEK-293T (setting [1]) is 0; in the data set with HEK-293T (setting [2]) it was 1; in the data set on HEK-293T (setting [3]), 0; with HEK-293T (setting [4]) it was 1; with HEK-293T (setting [5]), 1; in the data set with HEK-293T (setting [6]), 1. Further, the “Growth Rate” value in the data set on Fibroblast (setting [1]) amounted to 0; in the data set on Fibroblast (setting [7]) it was 1; with Fibroblast (setting [2]) it was 1; in the data set with Fibroblast (setting [3]), 0; in the data set with Fibroblast (setting [4]), 1; in the data set with Fibroblast (setting [5]), 1. Further, the “Growth Rate” value with Fibroblast (setting [8]) was 0; with Fibroblast (setting [6]) it was 1; in the data set on Fibroblast (setting [9]) it was 0; in the data set with U2OS (setting [1]), 0; in the data set with U2OS (setting [3]), 0; in the data set with U2OS (setting [4]) it was 1. For the same compound, the “Growth Rate” value with U2OS (setting [5]) and with U2OS (setting [6]) was 1 each time.
For `CC1(C)CNc2cc(NC(=O)c3cccnc3NCc3ccncc3)ccc21.O=P(O)(O)O.O=P(O)(O)O` [MOTESANIB DIPHOSPHATE], the “Growth Rate” value was 0 in the data set with HEK-293T (setting [1]); 0 with Fibroblast (setting [1]); 0 in the data set with Fibroblast (setting [3]); 1 in the data set with Fibroblast (setting [4]); 0 in the data set on Fibroblast (setting [10]); 1 in the data set with Fibroblast (setting [5]). The “Growth Rate” value was 0 in the data set on Fibroblast (setting [8]); 1 with Fibroblast (setting [6]); 0 in the data set with Fibroblast (setting [9]); 0 in the data set on U2OS (setting [1]); 1 with U2OS (setting [7]); 1 in the data set on U2OS (setting [2]). Moreover, the “Growth Rate” value in the data set with U2OS (setting [3]) worked out at 0; in the data set on U2OS (setting [4]), 1; with U2OS (setting [5]), 1; with U2OS (setting [6]), 1; in the data set on U2OS (setting [9]) it was 0.
Consider `N#CC1(c2ccccn2)CCN(Cc2cc(C(=O)N3CCCC3)c(=O)n3ccccc23)CC1` [MSD-M1PAM-NC], for which the “Growth Rate” value in the data set on HEK-293T (setting [1]) is reported as 1; with HEK-293T (setting [7]) it was 0; with HEK-293T (setting [2]), 1; in the data set on HEK-293T (setting [3]) it was 0; with HEK-293T (setting [4]) it was 0; in the data set with HEK-293T (setting [5]) it was 0. Also, the “Growth Rate” value is recorded as 0 in the data set with HEK-293T (setting [6]); 0 in the data set with Fibroblast (setting [1]); 1 with Fibroblast (setting [3]); 1 in the data set with Fibroblast (setting [4]); 1 in the data set with Fibroblast (setting [5]); 0 in the data set on Fibroblast (setting [8]). The “Growth Rate” value with Fibroblast (setting [6]) is recorded as 0; in the data set on U2OS (setting [7]), 0; with U2OS (setting [4]) it was 0; in the data set with U2OS (setting [5]), 0; with U2OS (setting [6]), 0; in the data set with U2OS (setting [9]), 1.
Take `CCCc1c(-c2ccc(O)cc2)nn(-c2ccc(O)cc2)c1-c1ccc(O)cc1` [PROPYLPYRAZOLETRIOL]: the “Growth Rate” value was determined as 0 in the data set on HEK-293T (setting [1]); 1 with HEK-293T (setting [2]); 1 with HEK-293T (setting [4]); 1 in the data set with HEK-293T (setting [5]); 0 in the data set on HEK-293T (setting [6]); 1 with HEK-293T (setting [9]). Further, the “Growth Rate” value was found to be 0 with Fibroblast (setting [1]); 0 with Fibroblast (setting [2]); 0 with Fibroblast (setting [4]); 1 with Fibroblast (setting [10]); 0 in the data set with Fibroblast (setting [5]); 1 with Fibroblast (setting [8]). Moreover, the “Growth Rate” value stood at 0 with Fibroblast (setting [6]); 1 in the data set on Fibroblast (setting [9]); 1 in the data set on U2OS (setting [1]); 0 in the data set on U2OS (setting [7]); 1 in the data set on U2OS (setting [3]); 1 with U2OS (setting [4]). Further, the “Growth Rate” value in the data set on U2OS (setting [5]) was 0; with U2OS (setting [8]) it was 1; with U2OS (setting [6]), 1.
As for `COc1cccc(OC)c1-c1cc(C(=O)NC2(C(=O)O)C3CC4CC(C3)CC2C4)nn1-c1ccnc2cc(Cl)ccc12` (stereo not given) [REMINERTANT], the “Growth Rate” value stood at 0 in the data set on HEK-293T (setting [1]); 0 in the data set with HEK-293T (setting [2]); 1 in the data set on HEK-293T (setting [3]); 0 in the data set on HEK-293T (setting [4]); 1 in the data set with HEK-293T (setting [10]); 0 in the data set with HEK-293T (setting [5]). In addition, the “Growth Rate” value is 0 in the data set on HEK-293T (setting [6]); 0 in the data set on Fibroblast (setting [1]); 1 in the data set on Fibroblast (setting [3]); 1 in the data set with Fibroblast (setting [4]); 0 in the data set with Fibroblast (setting [10]); 1 with Fibroblast (setting [5]). The “Growth Rate” value in the data set with Fibroblast (setting [8]) stood at 0; with Fibroblast (setting [6]) it was 1; in the data set with Fibroblast (setting [9]), 0; in the data set with U2OS (setting [1]) it was 1; in the data set with U2OS (setting [3]), 1; in the data set with U2OS (setting [4]), 1. Also, the “Growth Rate” value with U2OS (setting [5]) was 0; in the data set on U2OS (setting [8]), 1; with U2OS (setting [6]), 0; in the data set on U2OS (setting [9]), 1.
`CO[C@H]1/C=C/O[C@@]2(C)Oc3c(C)c(O)c4c(O)c(c(/C=N/N5CCN(C)CC5)c(O)c4c3C2=O)NC(=O)/C(C)=C\C=C\[C@H](C)[C@H](O)[C@@H](C)[C@@H](O)[C@@H](C)[C@H](OC(C)=O)[C@@H]1C` [RIFAMPIN]: the “Growth Rate” value with HEK-293T (setting [1]) is listed as 0; with HEK-293T (setting [2]), 1; in the data set on HEK-293T (setting [4]), 1; in the data set on HEK-293T (setting [5]) it was 1; in the data set on HEK-293T (setting [6]), 1; in the data set on Fibroblast (setting [1]) it was 0. The “Growth Rate” value in the data set with Fibroblast (setting [2]) amounted to 0; in the data set with Fibroblast (setting [4]), 0; with Fibroblast (setting [5]), 0; in the data set with Fibroblast (setting [6]), 0; with U2OS (setting [1]), 0; in the data set on U2OS (setting [3]) it was 1. Further, the “Growth Rate” value in the data set with U2OS (setting [4]) was 1; in the data set with U2OS (setting [5]) it was 1; in the data set with U2OS (setting [6]) it was 0; in the data set on U2OS (setting [9]) it was 1.
`Cc1nc2sccn2c(=O)c1CCN1CCC(=C(c2ccc(F)cc2)c2ccc(F)cc2)CC1` [RITANSERIN]: the “Growth Rate” value came to 0 with HEK-293T (setting [1]); 1 in the data set on HEK-293T (setting [2]); 0 in the data set on HEK-293T (setting [3]); 1 in the data set on HEK-293T (setting [4]); 0 with HEK-293T (setting [10]); 0 in the data set on HEK-293T (setting [5]). In addition, the “Growth Rate” value in the data set with HEK-293T (setting [6]), in the data set on Fibroblast (setting [1]), in the data set on Fibroblast (setting [2]), in the data set with Fibroblast (setting [4]), in the data set on Fibroblast (setting [5]) and with Fibroblast (setting [6]) was 0 in each case. Also, the “Growth Rate” value with U2OS (setting [1]) stood at 1; in the data set with U2OS (setting [7]) it was 0; with U2OS (setting [4]) it was 1; with U2OS (setting [5]), 1; in the data set with U2OS (setting [6]) it was 1.
Regarding `C[C@@H]1CCc2ncc(F)cc2[C@H]2CCCN2c2ccn3ncc(c3n2)C(=O)N1` [SELITRECTINIB], the “Growth Rate” value came to 0 with HEK-293T (setting [1]); 1 with HEK-293T (setting [7]); 0 in the data set with HEK-293T (setting [2]); 0 in the data set with HEK-293T (setting [4]); 0 in the data set on HEK-293T (setting [5]); 1 in the data set on HEK-293T (setting [8]). The “Growth Rate” value with HEK-293T (setting [6]) is recorded as 0; in the data set with Fibroblast (setting [7]) it was 0; in the data set with Fibroblast (setting [2]), 1; in the data set on Fibroblast (setting [3]), 0; with Fibroblast (setting [4]), 1; in the data set with Fibroblast (setting [10]), 0. In addition, the “Growth Rate” value in the data set with Fibroblast (setting [5]) is on record as 1; in the data set with Fibroblast (setting [8]), 0; in the data set on Fibroblast (setting [6]) it was 1; in the data set on Fibroblast (setting [9]), 0; in the data set with U2OS (setting [1]), 1; in the data set with U2OS (setting [2]) it was 0. Further, the “Growth Rate” value in the data set on U2OS (setting [4]) is given as 1; in the data set with U2OS (setting [10]), 0; in the data set on U2OS (setting [5]) it was 0; in the data set on U2OS (setting [6]), 1; with U2OS (setting [9]) it was 0.
In the case of `COc1cccc(CNC(=O)c2nc3scc(CN(C)Cc4ccccc4)c3c(=O)[nH]2)c1` [T-26f], the “Growth Rate” value in the data set with HEK-293T (setting [1]) is recorded as 0; in the data set on HEK-293T (setting [7]) it was 1; in the data set with Fibroblast (setting [1]), 0; with Fibroblast (setting [2]), 0; with Fibroblast (setting [4]), 0; with Fibroblast (setting [10]) it was 1. The “Growth Rate” value was determined as 0 in the data set with Fibroblast (setting [5]); 1 with Fibroblast (setting [8]); 0 with Fibroblast (setting [6]); 1 in the data set with Fibroblast (setting [9]); 0 with U2OS (setting [1]); 1 with U2OS (setting [2]). Also, the “Growth Rate” value with U2OS (setting [4]) came to 1; with U2OS (setting [5]) it was 1; in the data set on U2OS (setting [8]), 0; with U2OS (setting [6]) it was 1.
